Measurements published in paper PMC12596218 (Journal of Lipid Research, 2025).
Where “and” joins values, the source holds several entries; their conditions need not be identical. Equal values may be shown once. Read-outs that look alike come from different tables or passages of the source.

Key:
OATP1B1 [1] = conditions: cited from earlier work; for IC50: read-out: IC50 OATP1B1 inhibition
OATP1B1 [2] = target: T1, OATP1B1 (Homo sapiens, UniProt Q9Y6L6); assay: [3H]E1S transport inhibition assay in OATP1B1-HEK293 cells; assay type: cell-based; conditions: 200 nM [3H]E1S, 10 min; two independent experiments
T1 construct: stably transfected with the full open reading frames of human NTCP, ASBT, SOAT, OATP1B1, OATP1B3, OATP2B1, and murine Asbt (mAsbt); expressed in transfected cells; host or cells: HEK293, stably transfected (OATP1B1-HEK), tetracycline-induced
T1 sequence (Q9Y6L6 1-691): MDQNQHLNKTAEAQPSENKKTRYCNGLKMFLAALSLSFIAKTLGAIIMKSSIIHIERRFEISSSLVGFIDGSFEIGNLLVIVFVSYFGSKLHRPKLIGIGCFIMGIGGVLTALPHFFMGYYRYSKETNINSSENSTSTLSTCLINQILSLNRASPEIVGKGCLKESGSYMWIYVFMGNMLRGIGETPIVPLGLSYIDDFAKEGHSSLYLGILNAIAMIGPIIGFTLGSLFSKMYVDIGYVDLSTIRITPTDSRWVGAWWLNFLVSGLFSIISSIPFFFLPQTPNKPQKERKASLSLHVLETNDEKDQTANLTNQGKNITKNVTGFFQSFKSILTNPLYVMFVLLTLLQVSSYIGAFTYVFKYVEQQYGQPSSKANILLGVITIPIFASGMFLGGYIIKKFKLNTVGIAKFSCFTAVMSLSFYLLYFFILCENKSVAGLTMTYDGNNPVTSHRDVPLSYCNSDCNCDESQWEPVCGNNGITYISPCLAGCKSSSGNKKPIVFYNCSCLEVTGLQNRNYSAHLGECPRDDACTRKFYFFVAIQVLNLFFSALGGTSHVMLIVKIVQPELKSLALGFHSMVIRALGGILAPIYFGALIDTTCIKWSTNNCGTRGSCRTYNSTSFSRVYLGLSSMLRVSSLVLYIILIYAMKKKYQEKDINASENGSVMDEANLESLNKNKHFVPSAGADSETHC
Text: (§1) Human embryonic kidney HEK293 cells, stably transfected with the full open reading frames of human NTCP, ASBT, SOAT, OATP1B1, OATP1B3, OATP2B1, and murine Asbt (mAsbt) were used as reported ([18], [20], [21], [22], [23]). The NTCP, ASBT, and mAsbt constructs were C-terminally tagged with the FLAG epitope, and the SOAT construct was C-terminally tagged with green fluorescent protein. Non-transfected Flp-In HEK293 cells (Thermo Fisher Scientific) served as the control. All cell lines were maintained at 37°C, 5% CO2 and 95% humidity in DMEM/F-12 medium (Thermo Fisher Scientific) supplemented with 10% fetal calf serum (Sigma-Aldrich), 4 mM L-glutamine (PAA) and penicillin/streptomycin (PAA). Expression of the respective carrier protein was induced by tetracycline treatment at 1 μg/ml (Carl Roth GmbH + Co. KG).
(§2) Cells were seeded onto poly-L-lysine-coated 96-well plates, induced with 1 μg/ml tetracycline, and grown to confluence over 72 h at 37°C. Then, cells were washed with tempered (37°C) phosphate-buffered saline (PBS, containing 137.0 mM NaCl, 2.7 mM KCl, 1.5 mM KH2PO4, and 7.3 mM Na2HPO4, at pH 7.4) and preincubated with 80 μl sodium transport buffer (STB, containing 142.9 mM NaCl, 4.7 mM KCl, 1.2 mM MgSO4, 1.2 mM KH2PO4, 1.8 mM CaCl2, and 20.0 mM HEPES, at pH 7.4) for 5 min at 37°C. For inhibition studies, the medium was replaced by 80 μl STB containing the respective inhibitor or solvent alone and cells were further incubated for 5 min at 37°C. Transport experiments were started by adding 20 μl of a 5-fold concentrated substrate solution (solved in STB). For transport experiments under sodium-free conditions the same buffer composition was used as for STB, but sodium chloride was substituted with equimolar concentrations of choline chloride as previously reported ([20], [24]). Transport experiments were stopped by washing twice with ice-cold PBS and the plates were kept cool on ice until adding the lysis buffer [1% sodium dodecyl sulfate (SDS) and 1 N NaOH]. Then, the cell-associated radioactivity of the respective tritium-labeled substrate or ligand was quantified by liquid scintillation counting using MicroScint-20 scintillation cocktail (Revvity) in a Packard Microplate Scintillation Counter TopCount NXT (Packard Instrument Company). For IC50 transport inhibition measurements, the mean uptake values measured in non-carrier-expressing HEK293 control cells were defined as 0% uptake control and were subtracted from all other values. Values from cells without inhibitor and solvent alone were set to 100%. Finally, all net transport data were expressed as uptake or binding as % of control. All transport or inhibition graphs were generated with GraphPad Prism 6 (GraphPad). Determination of half maximal inhibitory concentrations (IC50) was done by nonlinear regression analysis using the equation log (inhibitor) versus response—variable slope settings. All data points of the IC50 curves represent means ± SD of quadruplicate determinations. For Km measurements, BS uptake in the absence of sodium was regarded as carrier-independent unspecific uptake and was subtracted from the transport rates in the presence of sodium to obtain carrier-specific uptake rates (indicated as dashed lines). From the specific uptake rates, Michaelis Menten Km values were calculated by non-linear regression analysis.

ASBT = target: T2, ASBT (Homo sapiens, UniProt Q12908); assay: [3H]TC transport and inhibition assay in ASBT-HEK293 cells; assay type: cell-based; conditions: for IC50: 1 μM [3H]TC, 10 min, ASBT-HEK293, two independent experiments
T2 construct: stably transfected with the full open reading frames of human NTCP, ASBT, SOAT, OATP1B1, OATP1B3, OATP2B1, and murine Asbt (mAsbt); expressed in transfected cells; host or cells: HEK293 (Flp-In), stably transfected, tetracycline-induced
T2 sequence (Q12908 1-348): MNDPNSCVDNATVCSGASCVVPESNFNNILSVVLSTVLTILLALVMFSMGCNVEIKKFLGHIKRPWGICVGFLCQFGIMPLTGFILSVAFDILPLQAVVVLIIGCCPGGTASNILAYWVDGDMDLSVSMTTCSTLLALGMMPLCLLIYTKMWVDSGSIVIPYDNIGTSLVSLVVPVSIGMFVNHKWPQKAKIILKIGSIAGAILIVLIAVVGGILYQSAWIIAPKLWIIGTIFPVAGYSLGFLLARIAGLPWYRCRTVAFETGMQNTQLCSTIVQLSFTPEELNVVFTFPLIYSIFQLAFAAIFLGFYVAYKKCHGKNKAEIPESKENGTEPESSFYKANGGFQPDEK
Text: as §1, §2

Row | Structure (SMILES) | IC50 (OATP1B1 [2]) | IC50 (ASBT) | also measured
1 | CCCCC1(CCCC)CS(=O)(=O)c2ccc(N(C)C)cc2[C@@H](c2ccc(OCc3ccc(C[N+]45CCN(CC4)CC5)cc3)cc2)[C@H]1O [maralixibat] | 9 µM and 8.3 µM | – | OATP1B1 inhibition (in words) (OATP1B1 [1]; in vitro, ref FDA NDA 214662 Livmarli): In vitro, maralixibat did not inhibit the transporters OATP1B1 and OATP1B3.
2 | CCCCC1(CCCC)CN(c2ccccc2)c2cc(SC)c(OCC(=O)N[C@@H](C(=O)N[C@@H](CC)C(=O)O)c3ccc(O)cc3)cc2S(=O)(=O)N1 [odevixibat] | 4 µM and 1.6 µM | 680 nM and 990 nM | IC50 (OATP1B1 [1]; in vitro studies, ref FDA NDA 215498 BYLVAY): 308 nM; OATP1B1 inhibition (in words) (OATP1B1 [1]; ref EMA EPAR Product Information Bylvay): Odevixibat does not inhibit OATP1B1 and OATP1B3.
3 | CCCC[C@]1(CC)CS(=O)(=O)c2cc(CNC(CC(=O)O)CC(=O)O)c(OC)cc2[C@@H](c2ccccc2)N1 [linerixibat] | > 10 µM and 29.1 µM and 12 µM | 180 nM and 250 nM | Substrate of OATP1B1 (OATP1B1 [1]): is a substrate; IC50 (OATP1B1 [1]; ref 65 Zamek-Gliszczynski et al. (2021)): 2690 nM; Transport inhibition at highest substrate concentration (ASBT; 500 μM [3H]TC): full transport inhibition; Slope of IC50 values versus TC substrate concentration (ASBT; [3H]TC 0.3-500 μM, linear regression): 4.0 × 10^−4
4 | CCCCC1(CCCC)CS(=O)(=O)c2ccc(N(C)C)cc2[C@@H](c2ccc(OCCCC[N+]34CCN(CC3)CC4)cc2)[C@H]1O [SC-435] | > 10 µM and 41.3 µM and 30.7 µM | 200 nM and 230 nM | –
5 | CCCCC1(CCCC)CN(c2ccccc2)c2cc(SC)c(OCC(=O)N[C@@H](C(=O)NCC(=O)O)c3ccccc3)cc2S(=O)(=O)C1 [elobixibat] | 4.5 µM and 4.4 µM | 110 nM and 230 nM | IC50 (OATP1B1 [1]; in vitro studies, ref PMDA Goofice Report on the Deliberation Results): 258 nM; IC50 ratio for ASBT versus NTCP inhibition (ASBT; measured in this study): 0.002-0.006
